# From patent publication US20230029496A1, “AMINO ACID ALTERNATIVE CURING SYSTEM” (THE TEXAS A&M UNIVERSITY SYSTEM, priority 2019, published 2023)
# Where “and” joins values, the source holds several entries; their conditions need not be identical. Identical values can stand only once. Like-named read-outs stand apart in the source and are kept apart here. Marks after values point to notes of the source that are not given here.
# Experiments:
# [1] = tested on: nitric oxide synthase system; conditions: pork, Phase II, without 547 ppm sodium erythorbate; for Residual Nitrite, LSMean main effect of Temperature: L-arginine
# Procedure: (§1) Fresh ground meat (beef, pork or poultry) was separated in ˜0.5 Kg batches and mixed with 2% salt and 10% added water. […] Each individual batch was mixed (1 min) in a food processor, removed for temperature and pH analyses and then placed into a jerky extruder tube. Approximately 25 g of sample were extruded into 50 mL centrifuge, then capped and labeled and placed into a controlled water batch and heated to a designated internal endpoint temperature (132, 158, or 165° F.).
# (§2) Samples also contained 547 ppm sodium erythorbate, a cure accelerator (Phase I) and without sodium erythorbate (Phase II). Samples were placed into test tubes and heated in a controlled water bath to 132, 158 and 165° F. Samples were held in a 40° F. cooler for seven days then tested for residual nitrite. Residual nitrite was tested after deproteinization for amino acid analysis by HPLC. Determination of nitrite (UV/VIS Spectrophotometric Method) was used to detect any residual nitrite for best results in detecting minute amounts of nitrite. Residual nitrite levels were read in a 96 well plate reader at 540 nm.
# (§3) Both phases of the experiment were designed as a factorial (concentration level and endpoint temperature) randomized complete block design with three replications. […] Least squares means were generated and Tukey's HSD used to determine significance at P≤0.05.
# [2] = tested on: nitric oxide synthase system; conditions: poultry; for Residual Nitrite, LSMean main effect of Temperature: L-arginine
# Procedure: as §1, §2, §3
# [3] = tested on: NOS system; experiment: Residual nitrite in test beef frankfurters (Example 12); conditions: for Nitrite: 7 days of storage
# Procedure: The remaining nonmeat ingredients were added (except the antimicrobial) and chopped at 2000 rpm for one minute. Protecta (sodium acetate antimicrobial) was added and the emulsion chopped at 4000 rpm for one minute. The emulsion was evacuated and placed into a vacuum assisted stuffer where each test emulsion was stuffed and twist linked into 22 mm cellulose casings weighing 40 g each. The frankfurter links were hung on smokehouse trucks, placed into a commercial smokehouse and thermally processed to 160° F. (Table 18).
# After thermal processing and chilling (40° F.), the casings were peeled from the frankfurters and were vacuum packaged and stored under refrigerated conditions for residual nitrite and nitrosylation. […] This was done to determine if the L-arginine could the NOS system to generate sufficient NO for cure color development and residual nitrite for antioxidant and antimicrobial effect.
compound,measurement,setting,value
N=C(N)NCCC[C@H](N)C(=O)O [L-arginine],"Residual Nitrite, LSMean main effect of Concentration",[1]; 1000 ppm L-arginine,73.46^b ppm and 73.46 ppm
same,"Residual Nitrite, LSMean Conc × Temperature","[1]; 1000 ppm L-arginine, 132° F.",53.73^c ppm
same,"Residual Nitrite, LSMean Conc × Temperature","[1]; 1000 ppm L-arginine, 158° F.",84.43^bc ppm
same,"Residual Nitrite, LSMean Conc × Temperature","[1]; 1000 ppm L-arginine, 165° F.",82.22^bc ppm
same,"Residual Nitrite, LSMean main effect of Concentration",[1]; 2000 ppm L-arginine,94.97^ab ppm and 94.97 ppm
same,"Residual Nitrite, LSMean Conc × Temperature","[1]; 2000 ppm L-arginine, 132° F.",85.87^bc ppm
same,"Residual Nitrite, LSMean Conc × Temperature","[1]; 2000 ppm L-arginine, 158° F.",113.28^ab ppm
same,"Residual Nitrite, LSMean Conc × Temperature","[1]; 2000 ppm L-arginine, 165° F.",85.76^bc ppm
same,"Residual Nitrite, LSMean main effect of Concentration",[1]; 3000 ppm L-arginine,85.31^ab ppm and 85.31 ppm
same,"Residual Nitrite, LSMean Conc × Temperature","[1]; 3000 ppm L-arginine, 132° F.",68.26^bc ppm
same,"Residual Nitrite, LSMean Conc × Temperature","[1]; 3000 ppm L-arginine, 158° F.",90.54^bc ppm
same,"Residual Nitrite, LSMean Conc × Temperature","[1]; 3000 ppm L-arginine, 165° F.",97.13^bc ppm
same,"Residual Nitrite, LSMean main effect of Concentration",[1]; 4000 ppm L-arginine,102.65^a ppm and 102.65 ppm
same,"Residual Nitrite, LSMean Conc × Temperature","[1]; 4000 ppm L-arginine, 132° F.",71.48^bc ppm
same,"Residual Nitrite, LSMean Conc × Temperature","[1]; 4000 ppm L-arginine, 158° F.",150.78^a ppm
same,"Residual Nitrite, LSMean Conc × Temperature","[1]; 4000 ppm L-arginine, 165° F.",85.70^bc ppm
same,"Residual Nitrite, LSMean main effect of Concentration",[1]; 5000 ppm L-arginine,72.06^b ppm and 72.06 ppm
same,"Residual Nitrite, LSMean Conc × Temperature","[1]; 5000 ppm L-arginine, 132° F.",59.74^c ppm
same,"Residual Nitrite, LSMean Conc × Temperature","[1]; 5000 ppm L-arginine, 158° F.",77.63^bc ppm
same,"Residual Nitrite, LSMean Conc × Temperature","[1]; 5000 ppm L-arginine, 165° F.",78.82^bc ppm
same,"Residual Nitrite, LSMean main effect of Temperature",[1]; 132° F.,67.81^c ppm and 67.81 ppm
same,"Residual Nitrite, LSMean main effect of Temperature",[1]; 158° F.,103.33^a ppm and 103.33 ppm
same,"Residual Nitrite, LSMean main effect of Temperature",[1]; 165° F.,85.93^b ppm and 85.93 ppm
same,"Residual Nitrite, LSMean main effect of Concentration","[2]; Phase I, with 547 ppm sodium erythorbate, 1000 ppm L-arginine",65.44^ab ppm and 65.44 ppm
same,"Residual Nitrite, LSMean Conc × Temp","[2]; Phase I, with 547 ppm sodium erythorbate, 1000 ppm L-arginine, 132° F.",76.46^ab ppm
same,"Residual Nitrite, LSMean Conc × Temp","[2]; Phase I, with 547 ppm sodium erythorbate, 1000 ppm L-arginine, 158° F.",60.52^abc ppm
same,"Residual Nitrite, LSMean Conc × Temp","[2]; Phase I, with 547 ppm sodium erythorbate, 1000 ppm L-arginine, 165° F.",59.36^abc ppm
same,"Residual Nitrite, LSMean main effect of Concentration","[2]; Phase I, with 547 ppm sodium erythorbate, 2000 ppm L-arginine",72.28^a ppm and 72.28 ppm
same,"Residual Nitrite, LSMean Conc × Temp","[2]; Phase I, with 547 ppm sodium erythorbate, 2000 ppm L-arginine, 132° F.",63.44^abc ppm
same,"Residual Nitrite, LSMean Conc × Temp","[2]; Phase I, with 547 ppm sodium erythorbate, 2000 ppm L-arginine, 158° F.",77.50^a ppm
same,"Residual Nitrite, LSMean Conc × Temp","[2]; Phase I, with 547 ppm sodium erythorbate, 2000 ppm L-arginine, 165° F.",75.91^ab ppm
same,"Residual Nitrite, LSMean main effect of Concentration","[2]; Phase I, with 547 ppm sodium erythorbate, 3000 ppm L-arginine",54.95^bc ppm and 54.95 ppm
same,"Residual Nitrite, LSMean Conc × Temp","[2]; Phase I, with 547 ppm sodium erythorbate, 3000 ppm L-arginine, 132° F.",60.08^abc ppm
same,"Residual Nitrite, LSMean Conc × Temp","[2]; Phase I, with 547 ppm sodium erythorbate, 3000 ppm L-arginine, 158° F.",65.81^abc ppm
same,"Residual Nitrite, LSMean Conc × Temp","[2]; Phase I, with 547 ppm sodium erythorbate, 3000 ppm L-arginine, 165° F.",38.96^cd ppm
same,"Residual Nitrite, LSMean main effect of Concentration","[2]; Phase I, with 547 ppm sodium erythorbate, 4000 ppm L-arginine",48.16^cd ppm and 48.16 ppm
same,"Residual Nitrite, LSMean Conc × Temp","[2]; Phase I, with 547 ppm sodium erythorbate, 4000 ppm L-arginine, 132° F.",50.99^a-d ppm
same,"Residual Nitrite, LSMean Conc × Temp","[2]; Phase I, with 547 ppm sodium erythorbate, 4000 ppm L-arginine, 158° F.",49.31^a-d ppm
same,"Residual Nitrite, LSMean Conc × Temp","[2]; Phase I, with 547 ppm sodium erythorbate, 4000 ppm L-arginine, 165° F.",44.17^cd ppm
same,"Residual Nitrite, LSMean main effect of Concentration","[2]; Phase I, with 547 ppm sodium erythorbate, 5000 ppm L-arginine",38.14^d ppm and 38.14 ppm
same,"Residual Nitrite, LSMean Conc × Temp","[2]; Phase I, with 547 ppm sodium erythorbate, 5000 ppm L-arginine, 132° F.",41.15^cd ppm
same,"Residual Nitrite, LSMean Conc × Temp","[2]; Phase I, with 547 ppm sodium erythorbate, 5000 ppm L-arginine, 158° F.",25.07^d ppm
same,"Residual Nitrite, LSMean Conc × Temp","[2]; Phase I, with 547 ppm sodium erythorbate, 5000 ppm L-arginine, 165° F.",48.20^bcd ppm
same,"Residual Nitrite, LSMean main effect of Temperature","[2]; Phase I, with 547 ppm sodium erythorbate, 132° F.",48.43 ppm
same,"Residual Nitrite, LSMean main effect of Temperature","[2]; Phase I, with 547 ppm sodium erythorbate, 158° F.",55.64 ppm
same,"Residual Nitrite, LSMean main effect of Temperature","[2]; Phase I, with 547 ppm sodium erythorbate, 165° F.",53.32 ppm
same,"Residual Nitrite, LSMean main effect of Concentration","[2]; Phase II, without 547 ppm sodium erythorbate, 1000 ppm L-arginine",65.37^a ppm and 65.44 ppm
same,"Residual Nitrite, LSMean Conc × Temperature","[2]; Phase II, without 547 ppm sodium erythorbate, 1000 ppm L-arginine, 132° F.",87.36^a ppm
same,"Residual Nitrite, LSMean Conc × Temperature","[2]; Phase II, without 547 ppm sodium erythorbate, 1000 ppm L-arginine, 158° F.",63.54^ab ppm
same,"Residual Nitrite, LSMean Conc × Temperature","[2]; Phase II, without 547 ppm sodium erythorbate, 1000 ppm L-arginine, 165° F.",45.19^ab ppm
same,"Residual Nitrite, LSMean main effect of Concentration","[2]; Phase II, without 547 ppm sodium erythorbate, 2000 ppm L-arginine",66.58^a ppm and 72.28 ppm
same,"Residual Nitrite, LSMean Conc × Temperature","[2]; Phase II, without 547 ppm sodium erythorbate, 2000 ppm L-arginine, 132° F.",65.60^ab ppm
same,"Residual Nitrite, LSMean Conc × Temperature","[2]; Phase II, without 547 ppm sodium erythorbate, 2000 ppm L-arginine, 158° F.",61.51^ab ppm
same,"Residual Nitrite, LSMean Conc × Temperature","[2]; Phase II, without 547 ppm sodium erythorbate, 2000 ppm L-arginine, 165° F.",72.63^ab ppm
same,"Residual Nitrite, LSMean main effect of Concentration","[2]; Phase II, without 547 ppm sodium erythorbate, 3000 ppm L-arginine",57.60^ab ppm and 54.95 ppm
same,"Residual Nitrite, LSMean Conc × Temperature","[2]; Phase II, without 547 ppm sodium erythorbate, 3000 ppm L-arginine, 132° F.",53.90^ab ppm
same,"Residual Nitrite, LSMean Conc × Temperature","[2]; Phase II, without 547 ppm sodium erythorbate, 3000 ppm L-arginine, 158° F.",73.59^a ppm
same,"Residual Nitrite, LSMean Conc × Temperature","[2]; Phase II, without 547 ppm sodium erythorbate, 3000 ppm L-arginine, 165° F.",45.32^ab ppm
same,"Residual Nitrite, LSMean main effect of Concentration","[2]; Phase II, without 547 ppm sodium erythorbate, 4000 ppm L-arginine",60.63^ab ppm and 48.16 ppm
same,"Residual Nitrite, LSMean Conc × Temperature","[2]; Phase II, without 547 ppm sodium erythorbate, 4000 ppm L-arginine, 132° F.",67.76^ab ppm
same,"Residual Nitrite, LSMean Conc × Temperature","[2]; Phase II, without 547 ppm sodium erythorbate, 4000 ppm L-arginine, 158° F.",52.15^ab ppm
same,"Residual Nitrite, LSMean Conc × Temperature","[2]; Phase II, without 547 ppm sodium erythorbate, 4000 ppm L-arginine, 165° F.",61.99^ab ppm
same,"Residual Nitrite, LSMean main effect of Concentration","[2]; Phase II, without 547 ppm sodium erythorbate, 5000 ppm L-arginine",45.02^b ppm and 38.14 ppm
same,"Residual Nitrite, LSMean Conc × Temperature","[2]; Phase II, without 547 ppm sodium erythorbate, 5000 ppm L-arginine, 132° F.",53.87^ab ppm
same,"Residual Nitrite, LSMean Conc × Temperature","[2]; Phase II, without 547 ppm sodium erythorbate, 5000 ppm L-arginine, 158° F.",30.83^b ppm
same,"Residual Nitrite, LSMean Conc × Temperature","[2]; Phase II, without 547 ppm sodium erythorbate, 5000 ppm L-arginine, 165° F.",50.37^ab ppm
same,"Residual Nitrite, LSMean main effect of Temperature","[2]; Phase II, without 547 ppm sodium erythorbate, 132° F.",65.70 ppm
same,"Residual Nitrite, LSMean main effect of Temperature","[2]; Phase II, without 547 ppm sodium erythorbate, 158° F.",56.32^ ppm and 56.32 ppm
same,"Residual Nitrite, LSMean main effect of Temperature","[2]; Phase II, without 547 ppm sodium erythorbate, 165° F.",55.10 ppm
same,water activity (Aw),"3000 ppm L-arginine, Day 1",0.979
same,water activity (Aw),"3000 ppm L-arginine, Day 7",0.978
same,water activity (Aw),"3000 ppm L-arginine, Day 14",0.976
same,water activity (Aw),"3000 ppm L-arginine, Day 28",0.982
same,water activity (Aw),"4000 ppm L-arginine, Day 1",0.979
same,water activity (Aw),"4000 ppm L-arginine, Day 7",0.982
same,water activity (Aw),"4000 ppm L-arginine, Day 14",0.975
same,water activity (Aw),"4000 ppm L-arginine, Day 28",0.975
same,water activity (Aw),"5000 ppm L-arginine, Day 1",0.982
same,water activity (Aw),"5000 ppm L-arginine, Day 7",0.957
same,water activity (Aw),"5000 ppm L-arginine, Day 14",0.972
same,water activity (Aw),"5000 ppm L-arginine, Day 28",0.976
same,Nitrite,[3]; 1000 ppm L-arginine with 547 ppm sodium erythorbate,13 ppm and 13.43^bc ppm
same,Nitrite,"[3]; 1000 ppm L-arginine, no cure accelerator",8.02^d ppm
same,Nitrite,[3]; 5000 ppm L-arginine with 547 ppm sodium erythorbate,16 ppm and 15.87^b ppm
same,Nitrite,"[3]; 5000 ppm L-arginine, no cure accelerator",10.64^cd ppm
same,residual nitrite levels,[3]; range over L-arginine treated frankfurters after 7 days of storage,8.02 to 15.87 ppm
